Experimental data taken from US20160130224A1, “Novel Pyrrole Derivatives” (priority 2013, published 2016).

Assays:
[1] = Solubility testing in PBS or 0.9% saline; assay type: physicochemical; conditions: result in words
Method: Solubility studies were performed by charging a vial with 5-10 mg of compound followed by the 40 addition of PBS solution or 0.9% saline to achieve a concentration of 100 mg/ml. If solubility was not observed the solution was diluted to concentrations of 50 mg/ml, 25 mg/ml and 4 mg/ml consecutively until complete solubility was observed.

[2] = biological target: T1, pneumolysin (Streptococcus pneumoniae serotype 2, UniProt Q04IN8); test: Inhibition of the haemolytic activity of pneumolysin (sheep erythrocytes); assay type: cell-based; conditions: pneumolysin at LD100, sheep erythrocytes, 37° C., read-out: IC50
T1 sequence (Q04IN8 whole entry): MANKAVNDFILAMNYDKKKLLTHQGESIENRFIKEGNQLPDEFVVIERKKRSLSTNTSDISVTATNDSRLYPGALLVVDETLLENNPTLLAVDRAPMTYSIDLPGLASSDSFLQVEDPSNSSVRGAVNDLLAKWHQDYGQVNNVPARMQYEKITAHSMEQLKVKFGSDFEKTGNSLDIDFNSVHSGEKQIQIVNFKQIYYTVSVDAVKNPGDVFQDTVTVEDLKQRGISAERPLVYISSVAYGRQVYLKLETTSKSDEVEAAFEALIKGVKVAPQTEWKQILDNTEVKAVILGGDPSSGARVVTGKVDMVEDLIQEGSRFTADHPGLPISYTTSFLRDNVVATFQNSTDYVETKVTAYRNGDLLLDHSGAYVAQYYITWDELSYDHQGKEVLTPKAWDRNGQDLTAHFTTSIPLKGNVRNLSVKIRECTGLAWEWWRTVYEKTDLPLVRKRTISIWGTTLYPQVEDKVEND
Method: The basis of this assay is that when pneumolysin is added to red blood cells, it induces their lysis and leads to the release of haemoglobin. In the presence of an inhibitory compound, pneumolysin-induced lysis is abolished, the red blood cells pellet at the bottom of the microtitre plate well and the supernatant is clear. However, if the compound is not inhibitory, the red blood cells are lysed and haemoglobin is released into the supernatant.
Test compound solutions (typically at 5 mM in DMSO) were diluted 1:1 in 100% DMSO. The compounds were then two-fold serially diluted in 100% DMSO across 11 wells of 96-well round-bottomed microtitre plate. PBS was then added to all the wells to achieve a 1:10 dilution of the compound in PBS. Pneumolysin was then added at a concentration equal to its LD100. Plates were then incubated at 37° C. for 30-40 min. After the incubation period, an equal volume of 4% (v/v) sheep erythrocyte suspension was added to each well and the plates incubated again at 37° C., for at least 30 min. Controls with only erythrocytes in PBS (control for no lysis) or erythrocytes plus pneumolysin (control for lysis) were prepared following the same procedure. Following the incubation with the erythrocytes, the Absorbance at 595 nm of each well was measured and the data used to determine the IC50 for each test compound. The IC50 values were determined using non-linear regression curve fitting. For that, the Log of the concentrations of the test compound was plotted against the percentage inhibition, estimated from the A595 values, followed by fitting a Hill Slope to the data.

[3] = biological target: T1, pneumolysin; test: Ex vivo meningitis assay: effect of pneumolysin on ciliary function of cultured ependymal cells; assay type: cell-based; conditions: rat ependymal cells; compound 1.56 μM; recorded over 30 min; FIG. 2
Description: The ependymal ciliated cells line the cerebral ventricles of the brain and the central canal of the spinal cord and are covered with cilia responsible for the circulation of the cerebrospinal fluid (CSF) around the central nervous system. This layer acts as a selective brain barrier to and from the cerebrospinal fluid and plays a role in controlling the CSF volume. To study if the inhibitors prevent the damage caused by pneumolysin on the ependymal layer, a rat ex vivo model of meningitis was used. This model is based on culturing and differentiating ciliated ependymal cells from neonate rat brains, which recreate the in vivo situation, where cells lining the brain ventricles, are exposed to S. pneumoniae and its toxic products.
Ependymal cell cultures were prepared by the method previously described [Microb. Pathog. (1999) 27 303-309]. Tissue culture trays were coated with bovine fibronectin and incubated at 37° C. in 5% (v/v) CO2 for 2 h before use. […]
After approximately two weeks, the cells were fully ciliated and ready for experiments. […] Beating cilia were recorded before and after exposure over 30 min, with a digital high-speed video camera at a rate of 500 frames/s. The recorded video sequences were played back at reduced frame rates and the ciliary beat frequency (CBF) was determined by the following equation: […]

[4] = biological target: T1, pneumolysin; test: Inhibition of pneumolysin-induced lactate dehydrogenase (LDH) release from A549 human lung epithelial cells; assay type: cell-based
Method: Pneumolysin induces the release of lactate dehydrogenase (LDH) from human monocytes and lung epithelial cells: a phenomenon that is indicative of plasma membrane damage or rupture [Infect. Immun. (2002) 70 1017-1022].
Human lung epithelial cells (A549) were seeded in flat-bottomed 96-well tissue culture plates and grown in RPMI 1640 medium supplemented with Glutamine, at 37° C., 5% CO2, for 24 h.
Before use, the cells were washed with PBS. Test compound dilutions were incubated with pneumolysin as described in Section A, then transferred to wells containing the human lung epithelial cells and the plates were incubated at 37° C., 5% CO2, for 30 min. The following controls were included on the plate (1) Negative controls, called low control (PBS only) to measure the natural release of LDH from the cells in culture, (2) positive controls (1% (v/v) Triton-X in PBS) to measure the maximum release of LDH from the cells (3) Pneumolysin solution only to measure pneumolysin-induced LDH release, (4) Test compound solution to assess the toxicity of the compound alone. […] Absorbance at 490 nm and 655 nm was then measured. The percentage of LDH release induced by pneumolysin in the presence and absence of test compounds was plotted against the Log of the concentration of the compound and the IC50 was determined, as described above in the inhibition of haemolysis assay, Section A.

[5] = Chemical stability assessment in PBS at 37.5° C. (HPLC); assay type: physicochemical; conditions: buffer, pH 6.2, read-out: Chemical stability at pH 6.2-7.2 (t1/2) (converted)
Method: (§1) Stability studies were carried out by dissolving 1-2 mg of compound in DMSO (1 mL) followed by addition of 0.4 mL of the resulting solution to stirred PBS solution (9.6 mL) at 37.5° C. A sample (ca. 0.5 mL) was immediately taken for HPLC analysis. Further samples were then taken for analysis at various timepoints thereafter. Half-lives were determined from the decrease in concentration of compound with respect to time.
as §1, with “performed” for “carried out”, “ml)” for “mL)”, “ml” for “mL”, “PBS” for “PBS solution”, “(˜0.5 ml)” for “(ca. 0.5 mL)”, “time-points” for “timepoints”

In the case of `COc1ccc(-n2c(C(=O)N(C)C)c(O)c(O)c2C(=O)N(C)C)cc1` [UL1-005, 3,4-Dihydroxy-1-(4-methoxyphenyl)-N^2,N^2,N^5,N^5-tetramethyl-1H-pyrrole-2,5-dicarboxamide], the “Solubility in 0.9% (w/v) saline, pH 6.5 or PBS pH 7.2” value [1] is reported as “Not soluble”, the IC50 ([2]; Table 1) is reported as 0.2 µM and the IC50 ([2]; Table 2) is reported as 0.2 µM. The “Ciliary beating frequency (CBF) in the presence of pneumolysin” value [3] was “No significant loss of the CBF”, the IC50 [4] was < 0.49 µM and the half-life [5] was < 30 min.
